Values after ≈ are worked out from the molar mass of the structure shown.
How the values were obtained:
S. aureus ATCC 21027 [1] = experiment: Agar diffusion method, S. aureus; assay type: cell-based, Staphylococcus aureus; parameters: key to Diameter of Zone Inhibition, S. aureus: Zones within 20–40 mm mean strong antibiotic activity; zones up to 20 mm—moderate; ≤10 mm—weak; +—insignificant; settings: for zone of inhibition at 100 µg/disc / zone of inhibition at 1 µg/disc: Staphylococcus aureus, read-out: Diameter of Zone Inhibition, S. aureus; for zone of inhibition at 100 µg/disc: ATCC21027, 24 h, 100 µg/well, 24 h, incl. 7 mm well; for zone of inhibition at 1 µg/disc: ATCC21027, 1 µg/well
Experimental: (§1) Elyakov Pacific Institute of Bioorganic Chemistry, Far East Branch, Russian Academy of Sciences. Test substances were dissolved in DMSO at concentrations of 1.0, 0.1, and 0.01 mg/mL. All strains were grown on trypticase-soy agar TSA (BBL) at 37 °C. […] After incubation of the dishes at 37 °C for 24 h (for bacteria) and 48 h (for the fungus) at 28 °C, the diameters of the growth inhibition zones of pathogenic microorganisms (mm) were measured, including the diameter of the wells. Commercial antibacterial drugs (vancomicin and gentamicin) and antifungal (clotrimazol) drugs were used as positive controls.

B. cereus ATCC 10702 = experiment: Agar diffusion method, B. cereus; assay type: cell-based, Bacillus cereus; parameters: key to Diameter of Zone Inhibition, B. cereus: Zones within 20–40 mm mean strong antibiotic activity; zones up to 20 mm—moderate; ≤10 mm—weak; +—insignificant; settings: for zone of inhibition at 100 µg/disc / zone of inhibition at 1 µg/disc: Bacillus cereus, read-out: Diameter of Zone Inhibition, B. cereus; for zone of inhibition at 100 µg/disc: ATCC10702, 24 h, 100 µg/well, 24 h, incl. 7 mm well; for zone of inhibition at 1 µg/disc: ATCC10702, 1 µg/well; for Diameter of Zone Inhibition, B. cereus: 1 µg/well
Experimental: as §1

P. aeruginosa ATCC 27853 = experiment: Agar diffusion method, P. aeruginosa; assay type: cell-based, Pseudomonas aeruginosa; settings: Pseudomonas aeruginosa, ATCC27853, 100 µg/well; read-out: Diameter of Zone Inhibition, P. aeruginosa
Experimental: as §1

E. coli K-12 = experiment: Agar diffusion method, E. coli; assay type: cell-based, Escherichia coli; settings: Escherichia coli, K12; 100 µg/well; read-out: Diameter of Zone Inhibition, E. coli
Experimental: as §1

C. albicans KMM 453 = experiment: Agar diffusion method, C. albicans; assay type: cell-based; settings: Candida albicans, KMM453, 48 h, 100 µg/well, 48 h at 28 °C; read-out: Diameter of Zone Inhibition, C. albicans
Experimental: as §1

S. aureus ATCC 21027 [2] = experiment: Minimum inhibitory concentration, broth microdilution; assay type: cell-based, Staphylococcus aureus; settings: for Selectivity index (SI) against S. aureus: SI = EC50 (normal Jb6 Cl 41-5a cells)/MIC; for MIC: Staphylococcus aureus, ATCC21027, broth microdilution, 24 h, read-out: Minimum inhibitory concentration (MIC) against S. aureus
Experimental: Stocks of substances were prepared in DMSO at a concentration of 10 mM. All studied compounds were tested in concentrations from 1.5 μM to 100 μM using twofold dilution. All tested compounds were add to the wells of the plates in a volume of 20 μL diluted in PBS (DMSO concentration < 1%). The bacterial culture of S. aureus ATCC 21027 (Collection of Marine Microorganisms PIBOC FEB RAS) was cultured in a Petri dish at 37 °C for 24 h on solid medium with the following composition; pepton—5.0 g/L, K2HPO4—0.2 g/L, glucose—1.0 g/L, MgSO4—0.05 g/L, yeast extract—1 g/L, agar—16.0 g/L, and distilled water—1.0 L. The pH of the medium was adjusted to 7.2–7.4 with NaOH solution.
The antimicrobial activity of the compounds was determined by the minimum inhibitory concentration (MIC) according to the method adopted by the Clinical and Laboratory Standards Institute (CLSI). Methods for dilution antimicrobial susceptibility tests for bacteria that grow aerobically followed the approved standard—tenth edition. CLSI document M07-A10, PA: Clinical and Laboratory Standards Institute; 2015, with a slight modification of the medium. The assays were performed in 96-well microplates in appropriate broth (pepton—5.0 g/L, K2HPO4—0.2 g/L, glucose—1.0 g/L, MgSO4—0.05 g/L, yeast extract—1 g/L, casein hydrolyzate—2.5 g/L, distilled water—1L). […] The MIC value is defined as the lowest concentration of compounds resulting in the complete inhibition of bacterial growth by measuring the absorbance at 600 nm with a microplate reader (BioTek, Winooski, Vt, USA). All experiments were performed twice in triplicate. Gentamicin was used as a positive control in concentration 1 mg/mL; 1% DMSO solution in PBS as a negative. The selectivity index for S. aureus has been defined as the ratio of EC50 for normal cells and the MIC value for the bacterial culture (SI = EC50/MIC).

[3] = tested on: Gram-positive bacteria (S. aureus, B. cereus); experiment: Agar diffusion method, Gram-positive strains; assay type: cell-based, Staphylococcus aureus, Bacillus cereus; settings: for Antimicrobial activity / inhibition zone diameter, Gram-positive bacteria: 10 µg/well; for Antimicrobial activity, Gram-positive strains: dilution to 1 µg/well
Experimental: as §1

[4] = tested on: human cervical cancer (HeLa); experiment: Cytotoxicity, MTT assay, HeLa cells; settings: for EC50: Homo sapiens, HeLa, 24 h, read-out: Cytotoxicity (EC50), HeLa; for Selectivity Index (SI), HeLa: SI = EC50 (Jb6 Cl 41-5a normal cells)/EC50 (tumor cells)
[5] = tested on: mouse neuroblastoma (Neuro 2a); experiment: Cytotoxicity, MTT assay, Neuro 2a cells; settings: for EC50: N2a, 24 h, read-out: Cytotoxicity (EC50), Neuro 2a; for Selectivity Index (SI), Neuro-2a: SI = EC50 (Jb6 Cl 41-5a normal cells)/EC50 (tumor cells)
[6] = Cytotoxicity, MTT assay, Jb6 Cl 41-5a normal epithelial cells; settings: mouse, Jb6 Cl 41-5a normal epithelial cells
[7] = tested on: mouse ascites Ehrlich carcinoma; experiment: Cytotoxicity, nonspecific esterase (FDA) assay, ascites Ehrlich carcinoma cells; settings: for EC50: Mus musculus, Ehrlich, 24 h, read-out: Cytotoxicity (EC50), Ascites Ehrlich Carcinoma; for Selectivity Index (SI), Ascitic Ehrlich Carcinoma: SI = EC50 (Jb6 Cl 41-5a normal cells)/EC50 (tumor cells)

Row | SMILES | zone of inhibition at 100 µg/disc (S. aureus ATCC 21027 [1]) | zone of inhibition at 100 µg/disc (B. cereus ATCC 10702) | zone of inhibition at 100 µg/disc (P. aeruginosa ATCC 27853) | zone of inhibition at 100 µg/disc (E. coli K-12) | zone of inhibition at 100 µg/disc (C. albicans KMM 453) | Selectivity index (SI) against S. aureus (S. aureus ATCC 21027 [2]) | MIC (S. aureus ATCC 21027 [2]) | melting point | EC50 [4] | Selectivity Index (SI), HeLa [4] | EC50 [5] | Selectivity Index (SI), Neuro-2a [5] | EC50 at 24 h [6] | EC50 [7] | Selectivity Index (SI), Ascitic Ehrlich Carcinoma [7] | zone of inhibition at 1 µg/disc (S. aureus ATCC 21027 [1]) | zone of inhibition at 1 µg/disc (B. cereus ATCC 10702) | Diameter of Zone Inhibition, B. cereus (B. cereus ATCC 10702) | Antimicrobial activity / inhibition zone diameter, Gram-positive bacteria [3] | Antimicrobial activity, Gram-positive strains [3] | also measured
1 | O=C1C2=C(S[C@@H]3OC[C@H](O)[C@H](O)[C@H]3O2)C(=O)c2c(O)cccc21 [Compound 19d, (3S,4S,4aR,12aS)-3,4,10-Trihydroxy-3,4,4a,12a-tetrahydro-2H-naphtho[2,3-b]pyrano[2,3-e][2,5]oxathiine-6,11-dione] | 20 ± 3 mm | 25 ± 2 mm | 0 mm | 0 mm | 0 mm | 0.4 | 6.25 µM (≈ 2.1 µg/mL) | 319 to 321 °C | 1300 nM | 1.8 | 2200 nM | 1 | 2300 nM | 1100 nM | 2.1 | – | – | – | – | – | zone of inhibition at 100 µg/disc ([3]; Staphylococcus aureus, 100 µg/well, read-out: Antimicrobial activity / inhibition zone diameter, Gram-positive bacteria): 20 to 40 mm
2 | O=C1C2=C(O[C@@H]3[C@@H](O)[C@H](O)[C@@H](CO)O[C@H]3S2)C(=O)c2c(O)cccc21 [Compound 20a, (2R,3S,4S,4aR,12aS)-3,4,7-Trihydroxy-2-(hydroxymethyl)-3,4,4a,12a-tetrahydro-2H-naphtho[2,3-b]pyrano-[2,3-e][2,5]oxathiine-6,11-dione] | 30 ± 2 mm | 22 ± 1 mm | 0 mm | 0 mm | 0 mm | – | 25 µM (≈ 9.16 µg/mL) | 274 to 276 °C | 6300 nM | 0.1 | 700 nM | 1 | 700 nM | 2700 nM | 0.3 | 0 mm | 0 mm | – | – | – | –
3 | O=C1C2=C(O[C@@H]3[C@@H](O)[C@H](O)CO[C@H]3S2)C(=O)c2c(O)cccc21 [Compound 20c, (3R,4S,4aR,12aS)-3,4,7-Trihydroxy-3,4,4a,12a-tetrahydro-2H-naphtho[2,3-b]pyrano[2,3-e][2,5]oxathiine-6,11-dione] | 30 ± 2 mm | 25 ± 1 mm | 0 mm | 0 mm | 8 ± 1 mm | 0.02 | 12.5 µM (≈ 4.2 µg/mL) | – | 2300 nM | 0.1 | 2200 nM | 0.1 | 300 nM | 700 nM | 0.4 | – | – | + | comparable with antibiotics vancomicin and gentamicin | residual effect | Diameter of Zone Inhibition, S. aureus (S. aureus ATCC 21027 [1]; 1 µg/well): +
4 | O=C1C2=C(O[C@@H]3[C@@H](O)[C@@H](O)[C@@H](CO)O[C@H]3S2)C(=O)c2c(O)cccc21 [Compound 20b, (2R,3R,4S,4aR,12aS)-3,4,7-Trihydroxy-2-hydroxymethyl-3,4,4a,12a-tetrahydro-2H-naphtho[2,3-b]pyrano[2,3-e][2,5]oxathiine-6,11-dione] | 30 ± 2 mm | 20 ± 1 mm | 0 mm | 0 mm | 0 mm | – | 25 µM (≈ 9.16 µg/mL) | 293 to 295 °C | 4700 nM | 0.1 | 1200 nM | 0.4 | 500 nM | 1100 nM | 0.5 | 0 mm | 0 mm | – | – | – | –
5 | O=C1C2=C(O[C@@H]3[C@@H](O)[C@@H](O)CO[C@H]3S2)C(=O)c2c(O)cccc21 [Compound 20d, (3S,4S,4aR,12aS)-3,4,7-Trihydroxy-3,4,4a,12a-tetrahydro-2H-naphtho[2,3-b]pyrano[2,3-e][2,5]oxathiine-6,11-dione] | 40 ± 2 mm | 30 ± 3 mm | 0 mm | 0 mm | 0 mm | 0.1 | 6.25 µM (≈ 2.1 µg/mL) | – | 400 nM | 1.75 | 1400 nM | 0.5 | 700 nM | 1200 nM | 0.6 | 0 mm | – | + | comparable with antibiotics vancomicin and gentamicin | residual effect | –

Reference: publication PMC7463537, “Synthesis and Evaluation of Antimicrobial and Cytotoxic Activity of Oxathiine-Fused Quinone-Thioglucoside Conjugates of Substituted 1,4-Naphthoquinones” (Molecules, 2020)
